Assays:
[1] = test system: Rat SNL tactile allodynia; assay: L5/L6 spinal nerve ligation (SNL) Chung pain model, tactile allodynia (von Frey); assay type: in vivo; details: for % Antiallodynia (Mean ± SD): 30 mg/kg PO, n = 7-8; for anti-allodynia effects: second repetition of the study, n=9
From the text: The Spinal Nerve Ligation is an animal model representing peripheral nerve injury generating a neuropathic pain syndrome. In this model experimental animals develop the clinical symptoms of tactile allodynia and hyperalgesia. L5/L6 Spinal nerve ligation (SNL) injury was induced using the procedure of Kim and Chung (Kim et al., Pain 50:355-363 (1992)) in male Sprague-Dawley rats (Harlan; Indianapolis, Ind.) weighing 200 to 250 grams.
Anaesthesia was induced with 2% isofluorane in O2 at 2 L/min and maintained with 0.5% isofluorane in O2. Rats were then shaved and aseptically prepared for surgeries. A 2 cm paraspinal incision was made at the level of L4-S2. L4/L5 was exposed by removing the transverse process above the nerves with a small rongeur. The L5 spinal nerve is the larger of the two visible nerves below the transverse process and lies closest to the spine. The L6 spinal nerve is located beneath the corner of the slope bone. A home-made glass Chung rod was used to hook L5 or L6 and a pre-made slip knot of 4.0 silk suture was placed on the tip of the rod just above the nerve and pulled underneath to allow for the tight ligation. The L5 and L6 spinal nerves were tightly ligated distal to the dorsal root ganglion. The incision was closed, and the animals were allowed to recover for 5 days.
Sham control rats underwent the same operation and handling as the experimental animals, but without SNL.
Prior to initiating drug delivery, baseline behavioural testing data is obtained. At selected times after infusion of the Test or Control Article behavioural data can then be collected again.
The assessment of tactile allodynia consisted of measuring the withdrawal threshold of the paw ipsilateral to the site of nerve injury in response to probing with a series of calibrated von Frey filaments (innocuous stimuli). Animals were acclimated to the suspended wire-mesh cages for 30 min before testing. Each von Frey filament was applied perpendicularly to the plantar surface of the ligated paw of rats for 5 sec. A positive response was indicated by a sharp withdrawal of the paw. For rats, the first testing filament is 4.31. Measurements were taken before and after administration of test articles. […] The protocol was repeated until three changes in behaviour were determined (“up and down” method) (Chaplan et al., J. Neurosci. Methods 53:55-63 (1994)). The 50% paw withdrawal threshold was determined as (10^[Xf+kδ])/10,000, where Xf=the value of the last von Frey filament employed, k=Dixon value for the positive/negative pattern, and δ=the logarithmic difference between stimuli. The cut-off values for rats were no less than 0.2 g and no higher than 15 g (5.18 filament); for mice no less than 0.03 g and no higher than 2.34 g (4.56 filament). A significant drop of the paw withdrawal threshold compared to the pre-treatment baseline is considered tactile allodynia.

[2] = molecular target: CYP3A4 (Homo sapiens, UniProt P08684); assay: cytochrome inhibition; assay type: in vitro ADME; details: read-out: inhibition of cytochrome 3A4
CYP3A4, sequence (P08684 whole entry): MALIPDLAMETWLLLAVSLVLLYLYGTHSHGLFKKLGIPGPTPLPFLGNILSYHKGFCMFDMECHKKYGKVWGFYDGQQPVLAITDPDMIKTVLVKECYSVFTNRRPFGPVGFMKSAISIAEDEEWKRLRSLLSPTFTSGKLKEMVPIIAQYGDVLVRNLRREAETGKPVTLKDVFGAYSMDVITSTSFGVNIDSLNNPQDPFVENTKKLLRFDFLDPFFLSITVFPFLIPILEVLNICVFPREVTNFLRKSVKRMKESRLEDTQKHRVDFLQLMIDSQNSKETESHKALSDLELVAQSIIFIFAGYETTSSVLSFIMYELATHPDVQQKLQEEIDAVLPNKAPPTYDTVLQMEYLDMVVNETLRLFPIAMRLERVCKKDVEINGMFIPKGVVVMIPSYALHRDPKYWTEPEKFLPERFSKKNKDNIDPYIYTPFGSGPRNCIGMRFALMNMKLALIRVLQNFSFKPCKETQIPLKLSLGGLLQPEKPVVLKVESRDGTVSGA
From the text: (§1) In addition to being able to modulate a particular calcium channel (e.g., CaV 3.1, CaV 3.2, or CaV 3.3), it may be desirable that the compound has very low activity with respect to the hERG K^+ channel, which is expressed in the heart: compounds that block this channel with high potency may cause reactions which are fatal. See, e.g., Bowlby et al., “hERG (KCNH2 or KV11.1 K^+ Channels: Screening for Cardiac Arrhythmia Risk,” Curr. Drug Metab. 9(9):965-70 (2008)). […] Such compounds may be particularly useful in the methods described herein.

[3] = molecular target: CYP2C9 (Homo sapiens, UniProt P11712); assay: cytochrome inhibition; assay type: in vitro ADME; details: read-out: inhibition of cytochrome 2C9
CYP2C9, sequence (P11712 whole entry): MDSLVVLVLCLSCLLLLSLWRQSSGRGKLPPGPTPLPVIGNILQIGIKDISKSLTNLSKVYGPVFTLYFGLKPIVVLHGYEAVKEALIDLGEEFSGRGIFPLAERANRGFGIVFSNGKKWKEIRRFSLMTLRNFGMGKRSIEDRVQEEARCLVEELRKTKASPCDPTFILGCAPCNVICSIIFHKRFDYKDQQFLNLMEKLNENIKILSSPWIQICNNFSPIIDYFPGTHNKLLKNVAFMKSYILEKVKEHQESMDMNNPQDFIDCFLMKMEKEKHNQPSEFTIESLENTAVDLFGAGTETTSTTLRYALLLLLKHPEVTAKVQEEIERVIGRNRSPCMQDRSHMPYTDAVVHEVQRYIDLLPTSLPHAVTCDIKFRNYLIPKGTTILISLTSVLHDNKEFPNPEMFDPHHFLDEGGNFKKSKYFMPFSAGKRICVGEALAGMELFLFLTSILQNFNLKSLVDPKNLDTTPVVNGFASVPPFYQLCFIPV
From the text: as §1

[4] = molecular target: T1, α1G (CaV 3.1) (Homo sapiens, UniProt O43497); assay: T-type calcium channel block, whole cell patch clamp; assay type: cell-based; details: HEK cells, mainly non-inactivated protocol; values above 10,000 nM represented as 10000
T1 construct: expressed in transfected cells; host or cells: HEK 293
T1 sequence (O43497 whole entry): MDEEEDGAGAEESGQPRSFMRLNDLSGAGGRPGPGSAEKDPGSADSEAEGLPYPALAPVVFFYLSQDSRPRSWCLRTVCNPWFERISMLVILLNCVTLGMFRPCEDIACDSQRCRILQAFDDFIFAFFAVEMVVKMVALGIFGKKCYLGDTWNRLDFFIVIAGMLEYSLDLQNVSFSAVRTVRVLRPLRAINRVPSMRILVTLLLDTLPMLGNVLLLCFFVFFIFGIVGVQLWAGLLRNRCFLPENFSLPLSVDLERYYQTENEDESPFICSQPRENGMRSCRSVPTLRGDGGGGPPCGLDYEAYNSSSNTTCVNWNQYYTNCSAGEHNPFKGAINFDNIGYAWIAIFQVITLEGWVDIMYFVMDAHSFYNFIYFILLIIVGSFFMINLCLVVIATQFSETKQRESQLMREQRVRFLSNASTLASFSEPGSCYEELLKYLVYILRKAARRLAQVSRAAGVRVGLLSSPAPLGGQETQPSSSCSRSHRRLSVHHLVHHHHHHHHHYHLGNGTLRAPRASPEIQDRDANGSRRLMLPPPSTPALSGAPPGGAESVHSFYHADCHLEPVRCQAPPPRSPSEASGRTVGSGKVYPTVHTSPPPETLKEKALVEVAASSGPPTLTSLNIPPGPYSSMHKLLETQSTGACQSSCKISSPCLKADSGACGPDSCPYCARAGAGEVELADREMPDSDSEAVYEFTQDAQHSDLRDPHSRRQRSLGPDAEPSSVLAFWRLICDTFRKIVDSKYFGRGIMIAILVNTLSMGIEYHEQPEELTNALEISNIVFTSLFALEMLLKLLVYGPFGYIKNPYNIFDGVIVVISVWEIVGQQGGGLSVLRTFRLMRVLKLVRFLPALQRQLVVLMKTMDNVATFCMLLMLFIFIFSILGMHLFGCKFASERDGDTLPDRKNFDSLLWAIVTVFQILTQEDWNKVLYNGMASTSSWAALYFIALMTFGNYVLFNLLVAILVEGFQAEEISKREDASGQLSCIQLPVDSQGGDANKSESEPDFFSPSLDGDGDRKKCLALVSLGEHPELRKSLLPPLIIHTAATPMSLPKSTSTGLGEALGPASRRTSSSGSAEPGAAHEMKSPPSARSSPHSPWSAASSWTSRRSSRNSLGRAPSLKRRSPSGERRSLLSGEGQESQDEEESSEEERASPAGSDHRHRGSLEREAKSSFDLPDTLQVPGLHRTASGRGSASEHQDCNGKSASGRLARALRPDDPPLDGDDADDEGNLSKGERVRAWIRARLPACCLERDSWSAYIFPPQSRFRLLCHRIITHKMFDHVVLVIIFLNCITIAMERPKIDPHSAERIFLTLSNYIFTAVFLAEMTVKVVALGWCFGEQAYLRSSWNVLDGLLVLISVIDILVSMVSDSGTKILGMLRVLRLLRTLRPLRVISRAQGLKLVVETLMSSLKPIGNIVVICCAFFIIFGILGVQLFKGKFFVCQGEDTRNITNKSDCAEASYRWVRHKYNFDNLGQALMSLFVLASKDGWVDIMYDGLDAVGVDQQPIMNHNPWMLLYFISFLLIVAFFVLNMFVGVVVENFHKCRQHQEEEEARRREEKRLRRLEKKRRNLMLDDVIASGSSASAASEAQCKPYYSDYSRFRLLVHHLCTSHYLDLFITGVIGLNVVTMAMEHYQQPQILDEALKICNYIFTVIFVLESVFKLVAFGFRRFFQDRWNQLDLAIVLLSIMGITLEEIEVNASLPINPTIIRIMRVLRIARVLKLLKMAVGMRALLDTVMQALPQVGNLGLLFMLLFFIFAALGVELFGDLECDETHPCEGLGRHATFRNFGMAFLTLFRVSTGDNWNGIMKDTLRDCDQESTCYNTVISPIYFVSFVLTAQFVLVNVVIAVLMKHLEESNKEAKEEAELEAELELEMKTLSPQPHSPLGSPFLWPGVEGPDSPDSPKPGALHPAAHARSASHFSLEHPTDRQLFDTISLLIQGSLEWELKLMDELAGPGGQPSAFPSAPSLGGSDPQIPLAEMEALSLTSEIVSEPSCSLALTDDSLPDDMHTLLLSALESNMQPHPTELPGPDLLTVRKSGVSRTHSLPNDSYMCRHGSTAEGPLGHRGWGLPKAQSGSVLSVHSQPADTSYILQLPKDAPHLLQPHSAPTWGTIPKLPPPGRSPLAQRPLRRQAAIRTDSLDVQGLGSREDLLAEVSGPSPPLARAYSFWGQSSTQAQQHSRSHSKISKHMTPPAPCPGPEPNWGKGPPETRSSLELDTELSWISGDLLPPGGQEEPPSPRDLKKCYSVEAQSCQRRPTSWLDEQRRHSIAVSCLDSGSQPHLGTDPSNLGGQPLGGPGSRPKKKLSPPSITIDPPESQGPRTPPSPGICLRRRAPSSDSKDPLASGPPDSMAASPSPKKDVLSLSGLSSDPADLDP
Procedure, shortened: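 HEK293 cells stably expressing human T-type channels, whole-cell patch clamp; compounds in external solution with 0.1-0.01% DMSO, applied by gravity. Mainly non-inactivating protocol: holding −110 mV, 1 s pre-pulse −100 mV, 50 ms test pulse −40 mV (inactivated protocol uses ~−85 mV pre-pulse); IC50 reported.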

[5] = molecular target: hERG K+ channel (Homo sapiens, UniProt Q12809); assay: hERG activity
hERG K+ channel, sequence (Q12809 whole entry): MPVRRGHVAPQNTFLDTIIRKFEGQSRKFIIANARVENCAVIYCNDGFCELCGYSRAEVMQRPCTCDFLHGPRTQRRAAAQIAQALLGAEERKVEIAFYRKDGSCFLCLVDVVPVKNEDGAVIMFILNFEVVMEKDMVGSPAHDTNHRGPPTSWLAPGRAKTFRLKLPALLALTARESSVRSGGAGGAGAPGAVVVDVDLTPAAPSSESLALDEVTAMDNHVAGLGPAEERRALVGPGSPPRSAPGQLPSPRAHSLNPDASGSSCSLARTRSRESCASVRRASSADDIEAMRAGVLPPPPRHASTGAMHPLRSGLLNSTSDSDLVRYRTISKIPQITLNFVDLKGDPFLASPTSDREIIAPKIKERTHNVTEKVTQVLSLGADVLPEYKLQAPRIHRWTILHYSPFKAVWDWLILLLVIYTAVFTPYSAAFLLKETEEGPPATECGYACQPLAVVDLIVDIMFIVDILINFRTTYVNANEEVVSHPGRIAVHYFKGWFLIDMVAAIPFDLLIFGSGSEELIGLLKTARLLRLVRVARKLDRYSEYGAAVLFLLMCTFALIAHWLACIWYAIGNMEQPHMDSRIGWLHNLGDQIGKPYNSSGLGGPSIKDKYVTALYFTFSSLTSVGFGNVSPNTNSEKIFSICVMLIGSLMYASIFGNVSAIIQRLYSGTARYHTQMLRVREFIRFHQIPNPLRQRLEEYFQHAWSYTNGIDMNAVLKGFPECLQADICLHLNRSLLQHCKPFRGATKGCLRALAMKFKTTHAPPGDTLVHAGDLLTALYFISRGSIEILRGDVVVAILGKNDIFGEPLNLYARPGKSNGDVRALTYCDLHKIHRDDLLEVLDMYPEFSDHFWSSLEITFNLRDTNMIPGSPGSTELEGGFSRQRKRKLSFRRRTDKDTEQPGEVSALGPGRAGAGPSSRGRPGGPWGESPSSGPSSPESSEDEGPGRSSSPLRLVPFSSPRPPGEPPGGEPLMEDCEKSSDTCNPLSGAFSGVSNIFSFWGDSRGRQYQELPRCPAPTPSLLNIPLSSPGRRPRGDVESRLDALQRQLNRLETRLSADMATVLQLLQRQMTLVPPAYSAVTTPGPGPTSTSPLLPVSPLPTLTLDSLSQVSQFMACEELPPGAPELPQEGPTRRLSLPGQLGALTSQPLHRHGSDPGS
From the text: as §1

[6] = molecular target: CYP2D6 (Homo sapiens, UniProt P10635); assay: cytochrome inhibition; assay type: in vitro ADME; details: read-out: inhibition of cytochrome 2D6
CYP2D6, sequence (P10635 whole entry): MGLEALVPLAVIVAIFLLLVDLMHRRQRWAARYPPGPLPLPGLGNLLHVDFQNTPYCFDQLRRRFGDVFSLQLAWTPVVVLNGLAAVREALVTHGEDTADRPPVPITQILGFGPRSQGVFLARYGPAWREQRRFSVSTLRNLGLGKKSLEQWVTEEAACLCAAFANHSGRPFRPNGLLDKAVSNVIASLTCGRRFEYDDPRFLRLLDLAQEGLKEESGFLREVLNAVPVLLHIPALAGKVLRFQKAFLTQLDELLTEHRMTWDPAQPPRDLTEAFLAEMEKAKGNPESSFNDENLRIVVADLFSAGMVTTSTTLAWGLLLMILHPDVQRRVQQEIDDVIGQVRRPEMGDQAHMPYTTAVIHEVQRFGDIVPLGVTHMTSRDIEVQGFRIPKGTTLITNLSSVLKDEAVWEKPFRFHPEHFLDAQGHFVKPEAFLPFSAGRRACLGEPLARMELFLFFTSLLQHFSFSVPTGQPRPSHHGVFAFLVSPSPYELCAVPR

Compound | Rat SNL tactile allodynia (% antiallodynia) ([1]; 1 hr) | Rat SNL tactile allodynia (% antiallodynia) ([1]; 2 hr) | Rat SNL tactile allodynia (% antiallodynia) ([1]; 4 hr) | inhibition at 10 micromolar [2] | inhibition at 10 micromolar [3] | % Antiallodynia (Mean ± SD) ([1]; 1 h) | % Antiallodynia (Mean ± SD) ([1]; 4 h) | anti-allodynia effects ([1]; 1 hr) | anti-allodynia effects ([1]; 2 hr) | anti-allodynia effects ([1]; 4 hr) | IC50 [4] | hERG activity [5] | inhibition at 10 micromolar [6]
N-(3,5- bis(trifluoromethyl) phenyl)-2-(1- (piperidine-3- carbonyl)piperidin-4- yl)acetamide [Compound 2] | 38% | 44% | 27% | – | – | – | – | – | – | – | – | – | –
N[C@@H]1CCCC[C@H]1C(=O)N1CCC(CC(=O)Nc2cc(C(F)(F)F)cc(C(F)(F)F)c2)CC1 (racemic) [Compound 3, trans-2-(1-(2-aminocyclohexanecarbonyl)piperidin-4-yl)-N-(3,5-bis(trifluoromethyl)phenyl)acetamide] | – | – | – | < 10% | < 10% | 36 ± 19 % | 4 ± 8% | 68±12% | 76±6% | 42±14% | > 10 µM | negligible | < 10%
